Source: ChEMBL document CHEMBL5523671, “ω-(5-Phenyl-2H-tetrazol-2-yl)alkyl-substituted glycine amides and related compounds as inhibitors of the amine oxidase vascular adhesion protein-1 (VAP-1)” (Bioorg Med Chem, 2024)
Calls of active or inactive are those of the source. No cut-off for these calls is given here.

Experiments:
[1] = target: T1, Amine oxidase [copper-containing] 3 (Bos taurus) (UniProt Q9TTK6); test: Inhibition of bovine plasma VAP-1 using 6-(5-Pheny1-2H-tetrazol-2-yl)hexan-1-amine as substrate at 10 uM measured after 30 mins by UV-HPLC analysis relative to control; type: cell-free
T1 sequence (whole entry): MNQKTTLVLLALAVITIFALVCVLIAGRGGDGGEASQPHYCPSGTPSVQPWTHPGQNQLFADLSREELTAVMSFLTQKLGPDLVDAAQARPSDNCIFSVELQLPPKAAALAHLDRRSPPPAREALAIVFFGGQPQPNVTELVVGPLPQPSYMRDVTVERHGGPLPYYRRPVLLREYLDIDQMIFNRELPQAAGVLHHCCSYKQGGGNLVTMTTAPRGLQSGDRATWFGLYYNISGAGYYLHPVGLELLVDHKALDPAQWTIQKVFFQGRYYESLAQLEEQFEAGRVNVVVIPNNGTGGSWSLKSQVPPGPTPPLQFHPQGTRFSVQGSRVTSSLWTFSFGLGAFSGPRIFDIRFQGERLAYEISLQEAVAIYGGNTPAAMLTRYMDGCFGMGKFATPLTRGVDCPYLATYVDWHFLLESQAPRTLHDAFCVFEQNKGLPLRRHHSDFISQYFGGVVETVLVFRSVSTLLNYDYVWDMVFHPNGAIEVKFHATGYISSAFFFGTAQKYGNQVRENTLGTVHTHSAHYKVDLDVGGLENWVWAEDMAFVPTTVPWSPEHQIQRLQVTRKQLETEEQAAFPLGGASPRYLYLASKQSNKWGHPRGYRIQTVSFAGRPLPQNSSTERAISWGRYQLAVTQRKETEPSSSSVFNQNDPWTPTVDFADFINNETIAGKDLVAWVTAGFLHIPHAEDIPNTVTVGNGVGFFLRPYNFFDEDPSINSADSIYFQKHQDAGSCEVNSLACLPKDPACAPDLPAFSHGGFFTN

[2] = target: T2, Amine oxidase [copper-containing] 3 (Bos taurus, UniProt Q9TTK6); test: Inhibition of bovine plasma VAP-1 using 6-(5-Pheny1-2H-tetrazol-2-yl)hexan-1-amine as substrate preincubated with enzyme for 15 mins followed by substrate addition measured after 30 mins by UV-HPLC analysis; type: cell-free
T2 sequence (Q9TTK6 whole entry): T1 sequence (whole entry)

[3] = target: T1, Amine oxidase [copper-containing] 3 (Bos taurus); test: Inhibition of bovine plasma VAP-1 using 6-(5-Pheny1-2H-tetrazol-2-yl)hexan-1-amine as substrate at 10 uM preincubated with enzyme for 15 mins followed by substrate addition measured after 30 mins by UV-HPLC analysis relative to control; type: cell-free; settings: time 45.0 min
[4] = target: T2, Amine oxidase [copper-containing] 3; test: Inhibition of bovine plasma VAP-1 using 6-(5-Pheny1-2H-tetrazol-2-yl)hexan-1-amine as substrate measured after 30 mins by UV-HPLC analysis; type: cell-free
[5] = target: T3, VAP-1 (amine oxidase [copper-containing] 3) (Bos taurus, UniProt Q9TTK6); test: Stability of compound assessed as bovine plasma VAP-1 mediated drug degradation by measuring parent compound remaining at 10 uM incubated for 30 mins by HPLC-MS analysis; type: ADME, cell-free; settings: cattle, bovine plasma VAP-1 (amine oxidase [copper-containing] 3), read-out: Stability
T3 sequence (Q9TTK6 whole entry): T1 sequence (whole entry)

[6] = target: T3, VAP-1 (amine oxidase [copper-containing] 3); test: Stability of compound assessed as bovine plasma VAP-1 mediated drug degradation by measuring parent compound remaining at 10 uM incubated for 120 mins by HPLC-MS analysis; type: ADME, cell-free; settings: cattle, bovine plasma VAP-1 (amine oxidase [copper-containing] 3), read-out: Stability
[7] = target: T3, VAP-1 (amine oxidase [copper-containing] 3); test: Stability of compound assessed as bovine plasma VAP-1 mediated drug degradation by measuring parent compound remaining at 10 uM incubated for 15 mins by HPLC-MS analysis; type: ADME, cell-free; settings: cattle, bovine plasma VAP-1 (amine oxidase [copper-containing] 3), read-out: Stability
[8] = target: T3, VAP-1 (amine oxidase [copper-containing] 3); test: Stability of compound assessed as bovine plasma VAP-1 mediated drug degradation by measuring parent compound remaining at 10 uM incubated for 60 mins by HPLC-MS analysis; type: ADME, cell-free; settings: cattle, bovine plasma VAP-1 (amine oxidase [copper-containing] 3), read-out: Stability
[9] = Selectivity index, ratio of IC50 for human plasma VAP-1 to IC50 for bovine plasma VAP-1
[10] = target: T4, Amine oxidase [copper-containing] 3 (Homo sapiens, UniProt Q16853); test: Inhibition of human plasma VAP-1 using 6-(5-Pheny1-2H-tetrazol-2-yl)hexan-1-amine as substrate preincubated with enzyme for 15 mins followed by substrate addition measured after 120 mins by UV-HPLC analysis; type: cell-free
T4 sequence (Q16853 whole entry): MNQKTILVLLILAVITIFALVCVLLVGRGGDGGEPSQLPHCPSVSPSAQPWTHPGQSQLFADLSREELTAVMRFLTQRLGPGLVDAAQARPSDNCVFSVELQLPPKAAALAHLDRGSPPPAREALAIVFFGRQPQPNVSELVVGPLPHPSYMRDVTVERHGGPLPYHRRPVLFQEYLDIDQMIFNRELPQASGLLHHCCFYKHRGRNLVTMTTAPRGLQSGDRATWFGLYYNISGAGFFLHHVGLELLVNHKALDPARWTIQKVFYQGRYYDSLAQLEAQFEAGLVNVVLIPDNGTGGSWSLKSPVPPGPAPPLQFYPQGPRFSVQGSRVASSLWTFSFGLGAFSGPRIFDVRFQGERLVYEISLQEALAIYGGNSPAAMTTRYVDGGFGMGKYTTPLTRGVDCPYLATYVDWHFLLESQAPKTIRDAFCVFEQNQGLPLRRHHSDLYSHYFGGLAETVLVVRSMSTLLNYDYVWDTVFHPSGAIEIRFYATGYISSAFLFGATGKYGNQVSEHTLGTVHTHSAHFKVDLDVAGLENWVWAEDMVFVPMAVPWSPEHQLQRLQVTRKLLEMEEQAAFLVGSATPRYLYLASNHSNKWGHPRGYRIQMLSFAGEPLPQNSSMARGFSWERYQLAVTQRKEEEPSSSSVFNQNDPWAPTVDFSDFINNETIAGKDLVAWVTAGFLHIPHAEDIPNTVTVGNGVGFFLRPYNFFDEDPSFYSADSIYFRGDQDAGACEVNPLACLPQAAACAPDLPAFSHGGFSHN

[11] = target: T2, Amine oxidase [copper-containing] 3; test: Stability of compound assessed as bovine plasma VAP-1 mediated drug degradation by measuring formation of aldehyde metabolite at 1 to 10 uM incubated for 60 to 120 mins by HPLC-MS analysis; type: ADME, cell-free; settings: cattle, dose lower 1 µM, time lower 60 min, dose upper 10 µM, time upper 120 min

Row | Compound | inhibition [1] | IC50 [2] [µM] | inhibition [3] | IC50 [4] [µM] | other results
1 | NCC(=O)NCCn1nnc(-c2ccccc2)n1 | inactive | > 10 | 31% |  | 
2 | NCC(=O)NCCCCCCn1nnc(-c2ccncc2)n1 |  | 5.4 |  | 6.2 | 
3 | NCC(=O)NCCCCCCn1cnc(-c2ccccc2)c1 | 41% | > 10 | 33% | > 10 | 
4 | NCC(=O)NCCCCCCn1nnc(-c2ccccn2)n1 | 40% | > 10 | 49% | > 10 | 
5 | NCC(=O)NCCCCCCCn1nnc(-c2ccccc2)n1 |  | 6.6 |  | 5.7 | 
6 | NCC(=O)NCCCCCn1nnc(-c2ccccc2)n1 |  | > 10 | 45% | 9.4 | 
7 | NCC(=O)NCc1ccccc1Cn1nnc(-c2ccccc2)n1 | 30% | > 10 | 18% | > 10 | remaining at 0.5 h, 10 µM [5]: 86%; remaining at 2 h, 10 µM [6]: 56%; remaining at 0.25 h, 10 µM [7]: 91%; remaining at 1 h, 10 µM [8]: 84%
8 | CS(=O)(=O)c1ccc(-c2nnn(CCCCCCNC(=O)CN)n2)cc1 |  | 4.5 |  | 2.3 | Ratio IC50 [9]: 2; remaining at 0.5 h, 10 µM [5]: 63%; remaining at 2 h, 10 µM [6]: < 5%; remaining at 0.25 h, 10 µM [7]: 82%; IC50 [10]: 29 µM; remaining at 1 h, 10 µM [8]: 23%; Stability [11]: Unstable
9 | COc1ccc(-c2nnn(CCCCCCNC(=O)CN)n2)cc1 |  | 6.3 |  | 6.2 | 
10 | CN(Cc1cccc(Cn2nnc(-c3ccccc3)n2)c1)C(=O)CN | 43% | > 10 | 49% | > 10 | Ratio IC50 [9]: 2; remaining at 0.5 h, 10 µM [5]: 85%; remaining at 2 h, 10 µM [6]: 45%; remaining at 0.25 h, 10 µM [7]: 95%; IC50 [10]: 20 µM; remaining at 1 h, 10 µM [8]: 65%
11 | NCC(=O)NCCCn1nnc(-c2ccccc2)n1 | 13% | > 10 | 29% | > 10 | 
12 | NCCCCCCn1nnc(-c2ccccc2)n1 |  |  |  |  | remaining at 0.5 h, 10 µM [5]: < 5%; remaining at 2 h, 10 µM [6]: < 5%; remaining at 0.25 h, 10 µM [7]: < 5%; remaining at 1 h, 10 µM [8]: < 5%
13 | NCC(=O)NCCCCCCn1nnc(-c2ccsc2)n1 |  | 6.8 |  | 6.3 | 
14 | NCC(=O)NCCCCCCn1nnc(-c2cccnc2)n1 | 44% | > 10 | 45% | > 10 | 
15 | NCC(=O)NCCCCCCn1nnc(-c2ccc(C(N)=O)cc2)n1 |  | 5.2 |  | 4 | 
16 | NCC(=O)NCCCCCCn1cc(-c2ccccc2)cn1 |  | 7.9 |  | 6.9 | 
17 | NCC(=O)NCCCCCCn1ccc(-c2ccccc2)n1 | 42% | > 10 | 37% | > 10 | 
18 | NCC(=O)Nc1ccc(CCn2nnc(-c3ccccc3)n2)cc1 | 20% | > 10 | 18% | > 10 | 
19 | NCC(=O)NC1CCC(CCn2nnc(-c3ccccc3)n2)CC1 (stereo not given) | inactive |  | inactive |  | 
20 | NCC(=O)NCCCCCCn1nnc(-c2ccc(N3CCOCC3)cc2)n1 |  | 5.6 |  | 7.6 | 
21 | NCC(=O)NCCCCCCn1nnc(-c2cccs2)n1 |  | 7.7 |  | 5.6 | 
22 | NCC(=O)NCCCCCCn1nnc(-c2ccc(C(=O)O)cc2)n1 | inactive |  | inactive |  | 
23 | NCC(=O)NCCCCCCn1nnc(-c2ccc(Cl)cc2)n1 |  | 4.3 |  | 3.5 | 
24 | NCC(=O)NCc1ccc(Cn2nnc(-c3ccccc3)n2)cc1 |  | 5.9 |  | 9.1 | remaining at 0.5 h, 10 µM [5]: 82%; remaining at 2 h, 10 µM [6]: 45%; remaining at 0.25 h, 10 µM [7]: 89%; remaining at 1 h, 10 µM [8]: 69%
25 | NCC(=O)NCCCCCCCCn1nnc(-c2ccccc2)n1 |  | 4.8 |  | 3.1 | 
26 | NCC(=O)NCCCCn1nnc(-c2ccccc2)n1 | 14% | > 10 | 29% | > 10 | 
27 | NCC(=O)N1CCC(CCCn2nnc(-c3ccccc3)n2)CC1 | 19% | > 10 | 18% | > 10 | 
28 | NCC(=O)NCCCCCCn1ncc(-c2ccccc2)n1 |  | 7 |  | 6.2 | 
29 | Cc1ccc(-c2nnn(CCCCCCNC(=O)CN)n2)cc1 |  | 5.1 |  | 4.7 | 
30 | COC(=O)c1ccc(-c2nnn(CCCCCCNC(=O)CN)n2)cc1 |  | 6.1 |  | 7.3 | 
